TGI and GI50 data for 15 compounds are collected here from PubChem BioAssay (NCI).

“And” between values parts separate entries of the source, which are not always exact repeats. Equal entries are not always repeated.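 Cultured in 96-well plates, cells were exposed to test compound for 48 hours across five concentrations. At the GI50, growth is halved. At the TGI there is no net growth.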 Where only a bound is given, the exact number is not on record here.

Test systems include CCRF-CEM leukemia; HOP-62 NSCLC; IGROV1 ovarian; KM12 colon; MDA-MB-231 breast; NCI/ADR-RES ovarian; OVCAR-8 ovarian; RPMI-8226 leukemia; U251 CNS; DU-145 prostate.
Holding throughout (experiment): NCI anticancer screen, dose series, 48 h

For the compound `Cc1c2cccc-2c2cc(O)c3ccccc3c2n1-c1ccc(N(C)C)cc1`, the TGI turned out to be 32.8 µM with CCRF-CEM leukemia; 27.9 µM in the experiment on HOP-62 NSCLC; 14.5 µM in the experiment on IGROV1 ovarian; 23.1 µM in the experiment with KM12 colon; 9.75 µM in the experiment with MDA-MB-231 breast; 30.7 µM in the experiment with NCI/ADR-RES ovarian. Also, the TGI with OVCAR-8 ovarian amounted to 33.8 µM; with RPMI-8226 leukemia, 26.6 µM; in the experiment on U251 CNS it was 25.9 µM.

As for `O=[N+]([O-])c1cccc(C2=NN(c3ccccc3)C3c4cc(Br)ccc4OCC23)c1` (stereo unspecified), the TGI with CCRF-CEM leukemia, with HOP-62 NSCLC, in the experiment with IGROV1 ovarian, in the experiment on KM12 colon, in the experiment with OVCAR-8 ovarian and in the experiment with RPMI-8226 leukemia was greater than 100 µM throughout. The same compound showed a TGI with U251 CNS greater than 100 µM.

For `COC(=O)c1ccccc1C1CN=NC12Cc1c(ccc(C)c1C)C2=O` (stereo unspecified), the TGI with CCRF-CEM leukemia, in the experiment with DU-145 prostate, with HOP-62 NSCLC, in the experiment with IGROV1 ovarian, in the experiment on KM12 colon and in the experiment with MDA-MB-231 breast was greater than 100 µM throughout. Moreover, the TGI in the experiment on NCI/ADR-RES ovarian, in the experiment with OVCAR-8 ovarian and in the experiment with U251 CNS was greater than 100 µM in each case.

For `CCCCCCCC(=O)OCC(COC(=O)C(C)(C)C)OC(=O)Cc1ccccc1` (stereo unspecified), the TGI in the experiment with CCRF-CEM leukemia, in the experiment on HOP-62 NSCLC, in the experiment on IGROV1 ovarian, with OVCAR-8 ovarian, in the experiment with RPMI-8226 leukemia and in the experiment with U251 CNS was greater than 100 µM throughout.

As for `CC(C)Oc1cccc(N2C(n3ccnc3)=Nc3ccncc3S2(=O)=O)c1`, the TGI amounted to 25 µM in the experiment with DU-145 prostate; 33.6 µM in the experiment with HOP-62 NSCLC; 29.1 µM with IGROV1 ovarian; 49.5 µM in the experiment with KM12 colon; 62 µM with NCI/ADR-RES ovarian; 40.7 µM in the experiment with OVCAR-8 ovarian. Moreover, the TGI in the experiment with RPMI-8226 leukemia came out at 12.3 µM; with U251 CNS, 28.8 µM.

For the compound `C[C@]12CCC3[C@@H](CCC45OC4C(=O)CC[C@]35C)C1Cc1cnn(-c3ccc(F)cc3)c1N2` (stereo partly specified), the TGI in the experiment on CCRF-CEM leukemia is greater than 100 µM; in the experiment with HOP-62 NSCLC, greater than 100 µM; with KM12 colon it was 55.1 µM; with OVCAR-8 ovarian it was greater than 100 µM; in the experiment on RPMI-8226 leukemia, 54.7 µM; in the experiment on U251 CNS, 98 µM.

On to `CCCCCCCCCCCCCCCCCCOc1ccccc1CC(=O)NCC[N+]1(C)CCOCC1`, for which the GI50 in the experiment on HOP-62 NSCLC was 4.01 µM; with MDA-MB-231 breast, 2.76 µM; with NCI/ADR-RES ovarian it was 18.3 µM; in the experiment on OVCAR-8 ovarian it was 5.56 µM. Moreover, the TGI in the experiment with HOP-62 NSCLC stood at 26.8 µM; in the experiment with MDA-MB-231 breast, 8.34 µM; with NCI/ADR-RES ovarian, 56.8 µM; in the experiment with OVCAR-8 ovarian, 29.9 µM.

Consider `Cc1cc([N+](=O)[O-])c(C)c2c1[nH]c1ccc(Cl)cc12`, for which the TGI with CCRF-CEM leukemia, in the experiment on HOP-62 NSCLC, with KM12 colon, in the experiment on OVCAR-8 ovarian and in the experiment with RPMI-8226 leukemia was greater than 100 µM each time.

In the case of `c1ccc(-c2c(-c3ccccc3)[n+](Cc3ccc4ccccc4c3)c(-c3ccc(-c4nc5ccccc5s4)cc3)n2Cc2ccc3ccccc3c2)cc1`, the GI50 with CCRF-CEM leukemia is 0.202 µM; in the experiment on DU-145 prostate, 0.262 µM; in the experiment on IGROV1 ovarian, 0.121 µM; in the experiment on KM12 colon, 0.13 µM; in the experiment with NCI/ADR-RES ovarian, 1.07 µM; with OVCAR-8 ovarian, 0.151 µM. Also, in the experiment with RPMI-8226 leukemia, the GI50 was 0.0625 µM. For the same compound, the TGI was greater than 41.5 µM with CCRF-CEM leukemia; 1.03 µM in the experiment on DU-145 prostate; 0.408 µM with IGROV1 ovarian; 0.336 µM in the experiment on KM12 colon; 2.61 µM with NCI/ADR-RES ovarian; 1.12 µM with OVCAR-8 ovarian. In the experiment on RPMI-8226 leukemia, this compound had a TGI of 0.426 µM.

On to `COc1cccc(C2c3cc4c(cc3OC(O)C2C)OCO4)c1OC` (stereo unspecified), for which the TGI with CCRF-CEM leukemia came out at 9.6 µM; in the experiment with DU-145 prostate, 26.2 µM; in the experiment with HOP-62 NSCLC, 80.1 µM; with IGROV1 ovarian, 36.4 µM; in the experiment with KM12 colon, 33.9 µM; with MDA-MB-231 breast, 42.4 µM. Also, the TGI in the experiment on OVCAR-8 ovarian is 18.7 µM; in the experiment on RPMI-8226 leukemia, 14.6 µM; in the experiment with U251 CNS it was 40.2 µM.

Turning to `O=C(/C=C/c1ccc(O)c(O)c1)OCCc1ccc2ccccc2c1`, the TGI worked out at 23.8 µM with CCRF-CEM leukemia; 24.3 µM in the experiment on DU-145 prostate; 26.4 µM in the experiment on HOP-62 NSCLC; 10.4 µM with IGROV1 ovarian; 12.9 µM in the experiment with KM12 colon; 24.3 µM with MDA-MB-231 breast. In addition, the results for the TGI with NCI/ADR-RES ovarian, in the experiment with OVCAR-8 ovarian and with U251 CNS were 18.3 µM, 26.6 µM and 23.8 µM, respectively.

Take `CCc1c(O)cc(=O)oc1-c1ccc(OC)c(OC)c1`: the TGI in the experiment on CCRF-CEM leukemia, in the experiment on DU-145 prostate, in the experiment on HOP-62 NSCLC, with IGROV1 ovarian, with KM12 colon and in the experiment on MDA-MB-231 breast was greater than 100 µM each time. The TGI in the experiment with NCI/ADR-RES ovarian, in the experiment on OVCAR-8 ovarian and in the experiment on U251 CNS was greater than 100 µM each time.

As to `O=C1C=CC2(O[C@H](c3ccccc3)[C@@H](c3ccccc3)O2)[C@H](Sc2ccccc2O)C1`, the TGI worked out at 2.59 µM in the experiment on DU-145 prostate; 3.98 µM in the experiment with HOP-62 NSCLC; 0.593 µM in the experiment on IGROV1 ovarian; 6.45 µM in the experiment with KM12 colon; 2.22 µM in the experiment with MDA-MB-231 breast; 10 µM with NCI/ADR-RES ovarian. The TGI in the experiment on OVCAR-8 ovarian came out at 0.217 µM; in the experiment on U251 CNS, 1.78 µM.

As to `CN(C)CCn1c(=O)c2ccc(NCCCN(C)CCCNc3ccc4c(=O)n(CCN(C)C)c(=O)n5c6ccc(O)cc6c(=O)c3c45)c3c(=O)c4cc(O)ccc4n(c1=O)c23`, the TGI with CCRF-CEM leukemia stood at 0.13 µM; with DU-145 prostate, 0.655 µM; in the experiment on HOP-62 NSCLC it was 1.51 µM; with IGROV1 ovarian, 0.392 µM; with KM12 colon, 0.553 µM; with MDA-MB-231 breast it was 0.177 µM. Further, the TGI was greater than 46.3 µM with NCI/ADR-RES ovarian, 0.347 µM with OVCAR-8 ovarian and 0.3 µM in the experiment with U251 CNS.

On to `Cc1c2ccnc(C(N)=O)c2c(C)c2c1[nH]c1ccccc12`, for which the GI50 in the experiment on CCRF-CEM leukemia was 3.64 µM; in the experiment with HOP-62 NSCLC, 4.03 µM; in the experiment on IGROV1 ovarian it was 7.49 µM; in the experiment with KM12 colon, 0.651 µM; in the experiment on OVCAR-8 ovarian it was 4.87 µM; in the experiment with RPMI-8226 leukemia it was 3.58 µM. Also, the GI50 in the experiment on U251 CNS is 4.14 µM. Also, the TGI was 46.6 µM and > 100 µM in the experiment with CCRF-CEM leukemia; 26.8 µM and 16.9 µM in the experiment on HOP-62 NSCLC; 50 µM and 27.4 µM in the experiment on IGROV1 ovarian; 47.2 µM and 56.1 µM in the experiment with KM12 colon; 34 µM with NCI/ADR-RES ovarian; 19.1 µM and > 100 µM in the experiment with OVCAR-8 ovarian. Moreover, the TGI was 34.5 µM and 16.4 µM in the experiment on RPMI-8226 leukemia; 37.7 µM and 16.5 µM in the experiment with U251 CNS.
